The experiment in a line: Inhibition of Influenza A/California/04/09 H1N1 PA endonuclease (1 to 204 residues) expressed in Escherichia coli BL21 (RIL) cells using (6-FAM)TGGCAATATCAGCTCCACA(MGBNFQ) DNA probe as substrate measured after 5 to 90 mins by fluorescence assay. Details: species or system Influenza A virus (A/California/04/2009(H1N1)).

`O=C(O)c1ccc(-c2cc(O)c(=O)[nH]c2-c2ccc(F)cc2)cc1` had an IC50 of 0.011 µM. That is a double-digit nanomolar value.
`O=c1[nH]cc(Br)cc1O` showed a 50% inhibitory concentration (IC50) of 16 µM.

A word on the IC50: it is the concentration that inhibits the measured activity by half. Higher therefore signals weaker potency in that assay.

These data come from ChEMBL document CHEMBL4699657, “Fragment-to-Lead Medicinal Chemistry Publications in 2019” (J Med Chem, 2020).
